Counter-ions that a name gives are not always drawn.
Tests used:
[1] = system: Fusarium oxysporum f. sp. cubense; assay: in vitro 96-well microtiter plate assay, visible mould development; assay type: cell-based; settings: substance alone
Saccharomyces cerevisiae [2] = assay: filter disc inhibition zone on PDA Petri dishes (145 mm), Example 2; assay type: cell-based; settings: after 16 h
Description: Saccharomyces cerevisiae (at least 10^5 cfu/ml) was distributed on Petri dishes with a diameter of 145 mm containing 30 ml Potato Dextrose Agar (PDA; Carl Roth; pH of about 6) using sterilized swabs. […] As controls, the effects of the fatty acid salts alone (without natamycin) were tested. Yeast growth was also measured after incubation on medium without natamycin and fatty acid salts. Following the application of a filter, Petri dishes were incubated upside down for 24 h in a refrigerator at 4° C. to allow diffusion of natamycin into the agar. After 24 h the filter discs were removed from the agar and the Petri dishes were incubated upside down in a stove at 30° C. […] After 16 h incubation in the stove the size of the inhibition zone was determined using a digital caliper gauge. The data are presented as square mm and are an average of four replicas.

Saccharomyces cerevisiae [3] = assay: filter disc inhibition zone on Petri dishes (90 mm), Example 3; assay type: cell-based; settings: for surface of inhibition zone: 90 mm dish, after 16 h
Description: Saccharomyces cerevisiae (at least 10^5 cfu/ml) was distributed on Petri dishes with a diameter of 145 mm containing 30 ml Potato Dextrose Agar (PDA; Carl Roth; pH of about 6) using sterilized swabs. Filter paper discs (Whatman, Antibiotic Assay Paper, grade AA) with a diameter of 6 mm were loaded with 40 μl of a solution of 3 mM natamycin (Chinonbio, China, 95%) plus 0, 0.03, 0.09, 0.3 or 0.9 mM of sodium salts of butanoic acid (Carl Roth >99%), caprylic acid (Carl Roth, >99.5%), palmitic acid (Sigma, sodium palmitate 98.5) or stearic acid (Carl Roth, sodium stearate 88-92%). As controls, the effects of the fatty acid salts alone (without natamycin) were tested. Yeast growth was also measured after incubation on medium without natamycin and fatty acid salts.
Following the application of a filter, Petri dishes were incubated upside down for 24 h in a refrigerator at 4° C. to allow diffusion of natamycin into the agar. After 24 h the filter discs were removed from the agar and the Petri dishes were incubated upside down in a stove at 30° C. […] After 16 h incubation in the stove the size of the inhibition zone was determined using a digital caliper gauge. The data are presented as square mm and are an average of four replicas.
The experiment was performed as described in example 2, except that the diameter of the petri dishes was 90 mm. Measurement of the inhibition zone was after 16 hours.

Saccharomyces cerevisiae [4] = assay: filter disc inhibition zone on PDA Petri dishes (90 mm, 50 μL), Example 4; assay type: cell-based; settings: 3 mM natamycin alone; after 16 h
Description: Saccharomyces cerevisiae (at least 10^5 cfu/mL) was distributed on Petri dishes with a diameter of 90 mm containing 10 ml PDA agar (Carl Roth, pH about 6) using sterilized swabs. Filter paper discs (Whatman) with a diameter of 6 mm were loaded with 50 μL of a solution containing a concentration of 3 mM natamycin plus 0.3 mM of a mixture of oleic acid sodium salt and stearic acid sodium salt in a 50/50 ratio (this mixture will be referred to as fatty acid mix). As controls, the effect of the fatty acid mix alone (without natamycin) was tested on yeast growth. Yeast growth was also determined after incubation on medium without both natamycin and fatty acid salts. The size of the inhibition zone is a result of the natamycin and/or fatty acid salts released from the sample disc. After 16 h of incubation in the stove the size of the inhibition zone was measured using a digital caliper gauge. The data are presented as square mm and are an average of four replicas.

Botrytis cinerea = assay: rot on wounded apples inoculated with Botrytis cinerea; assay type: in vivo; settings: 3 mM natamycin; for Lesion area on apple fruits: 0 FA; for Antifungal activity (%): apple fruits
Source text: Tested fruit: apples cv Maribelle from organic origin/SKAL certified. SKAL is a semi-governmental Dutch organization that controls organic production in the Netherlands. Wounds of the apples were checked at day 5 and 7. A mixture of fatty acid sodium salts containing oleic acid sodium salt and stearic acid sodium salt in a 50/50 ratio was used in this experiment and will be referred to as fatty acid mix. Used pathogen: Botrytis cinerea spore-suspension containing 10^6 spores/ml. Application: The fruit peel of the apple was damaged with a cork borer, ø 4 mm and depth ˜0.5 cm into the fruit, with 2 wounds per apple. 40 microliter of a freshly prepared spore suspension of B. cinerea was applied by pipette onto each wound. Subsequently, the spore-suspension was allowed to air-dry for 4 hours. Then, 40 microliter of a treatment as presented in the list above was applied by pipette to each wound. All fruits were kept at room temperature (20° C.). Wounds of the apples were checked after 4 and 7 days of incubation. […] Replicates: All treatments for the apple experiment were performed on six individual apples with two wounds each resulting in 12 wounds per treatment.

[5] = saturation level of natamycin in water by HPLC; assay type: physicochemical
[6] = solubility of natamycin in aqueous composition (description); assay type: physicochemical; settings: presence of fatty acids, monoglycerides and/or derivatives; pH between 5 and 9
[7] = 0.03 mM fatty acid salt without natamycin
[8] = 0.09 mM fatty acid salt without natamycin
[9] = 0.3 mM fatty acid salt without natamycin
[10] = 0.9 mM fatty acid salt without natamycin

## C[C@@H]1C/C=C/C=C/C=C/C=C/[C@H](O[C@@H]2O[C@H](C)[C@@H](O)[C@H](N)[C@@H]2O)C[C@@H]2O[C@](O)(C[C@@H](O)C[C@H]3O[C@@H]3/C=C/C(=O)O1)C[C@H](O)[C@H]2C(=O)O [Natamycin, natamycin]
[1]
  sensitivity of Fusarium oxysporum: > 7 µM
Saccharomyces cerevisiae [2]; 3 mM natamycin, 0 mM fatty acid salt, 40 μl per disc
  surface of inhibition zone: 585 square mm
Saccharomyces cerevisiae [3]; 3 mM natamycin, 0 mM caprylic acid salt
  surface of inhibition zone: 788 square mm
Saccharomyces cerevisiae [4]
  Inhibition zone: 480 square mm
Botrytis cinerea; 5 days after inoculation
  Lesion area on apple fruits: 130 mm^2
Botrytis cinerea; 7 days after inoculation
  Lesion area on apple fruits: 308 mm^2
Botrytis cinerea; incubation 5 days
  Antifungal activity (%): 62%
Botrytis cinerea; incubation 7 days
  Antifungal activity (%): 50%
[5]; ratio natamycin:salts of oleic and stearic acid mix 1:0 (g:g), room temperature
  Dissolved natamycin in water: 46 mg/L
[5]; without addition of fatty acids
  level dissolved in water: about 46 ppm
[6]
  solubility of natamycin: increased

## CCCC(=O)O [butanoic acid-Na, butanoic acid]
Saccharomyces cerevisiae [2]; [7]
  surface of inhibition zone: 0 square mm
Saccharomyces cerevisiae [2]; [8]
  surface of inhibition zone: 0 square mm
Saccharomyces cerevisiae [2]; [9]
  surface of inhibition zone: 0 square mm
Saccharomyces cerevisiae [2]; [10]
  surface of inhibition zone: 0 square mm

## CCCCCCCC(=O)O [caprylic acid ammonium salt, caprylic acid]
Saccharomyces cerevisiae [3]; caprylic acid salt 0.09, 0.3 and 0.9 mM with natamycin
  effect on natamycin-inhibited yeast growth: enhanced
Saccharomyces cerevisiae [3]; without natamycin
  inhibition of growth of yeast by the salts themselves: did not inhibit

## CCCCCCCC(=O)O [caprylic acid potassium salt, caprylic acid]
Saccharomyces cerevisiae [3]; 0.03 mM caprylic acid salt without natamycin
  surface of inhibition zone: 0 square mm
Saccharomyces cerevisiae [3]; 0.09 mM caprylic acid salt without natamycin
  surface of inhibition zone: 0 square mm
Saccharomyces cerevisiae [3]; 0.3 mM caprylic acid salt without natamycin
  surface of inhibition zone: 0 square mm
Saccharomyces cerevisiae [3]; 0.9 mM caprylic acid salt without natamycin
  surface of inhibition zone: 0 square mm

## CCCCCCCC(=O)O [caprylic acid-Na, caprylic acid]
Saccharomyces cerevisiae [2]; [7]
  surface of inhibition zone: 0 square mm
Saccharomyces cerevisiae [2]; [8]
  surface of inhibition zone: 0 square mm
Saccharomyces cerevisiae [2]; [9]
  surface of inhibition zone: 0 square mm
Saccharomyces cerevisiae [2]; [10]
  surface of inhibition zone: 0 square mm

## CCCCCCCCCCCCCCCC(=O)[O-].[Na+] [palmitic acid-Na, sodium palmitate]
Saccharomyces cerevisiae [2]; [7]
  surface of inhibition zone: 0 square mm
Saccharomyces cerevisiae [2]; [8]
  surface of inhibition zone: 0 square mm
Saccharomyces cerevisiae [2]; [9]
  surface of inhibition zone: 0 square mm
Saccharomyces cerevisiae [2]; [10]
  surface of inhibition zone: 0 square mm

## CCCCCCCCCCCCCCCCCC(=O)[O-].[Na+] [stearic acid-Na, sodium stearate]
Saccharomyces cerevisiae [2]; [7]
  surface of inhibition zone: 0 square mm
Saccharomyces cerevisiae [2]; [8]
  surface of inhibition zone: 0 square mm
Saccharomyces cerevisiae [2]; [9]
  surface of inhibition zone: 0 square mm
Saccharomyces cerevisiae [2]; [10]
  surface of inhibition zone: 0 square mm
